Results from PubChem BioAssay (NCI).
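Interpolation was linear, between the two tested concentrations surrounding the appropriate level; five concentrations were tested over 48 hours in 96-well plates. TGI is the concentration that stops growth completely.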

Columns and labels:
Assay in all cases: NCI tumour cell line growth inhibition, 48 h
[1] = tested on: DLD-1 colon
[2] = tested on: HOP-18 NSCLC
[3] = tested on: DMS 114 small cell lung
[4] = tested on: RXF-631 renal
[5] = tested on: DMS 273 small cell lung

SMILES	TGI [1]	TGI [2]	TGI [3]	TGI [4]	TGI [5]
COC(=O)C(C(=O)C(=O)Nc1cccc(O)c1)c1nc2ccc(Cl)cc2[nH]c1=O (stereo not drawn)	> 100 µM	> 100 µM	> 100 µM	> 100 µM	–
COC(=O)CCC(NC(=S)N/N=C(\C)c1ccccn1)C(=O)OC (stereo not drawn)	> 100 µM	> 100 µM	75.8 µM	> 100 µM	–
COc1c(OC(C)=O)cc2c(OC(C)=O)c1CC(C)CC(OC)C(O)C(C)/C=C(\C)C(OC(N)=O)C(OC)/C=C\C=C(/C)C(=O)N2 (stereo not drawn)	> 100 µM	> 100 µM	> 100 µM	> 100 µM	> 100 µM
C/C(CN1C(=O)c2ccccc2C1=O)=N\NS(=O)(=O)c1ccccc1	> 100 µM	> 100 µM	> 100 µM	> 100 µM	> 100 µM
CCC(=O)C1=C(OC(C)=O)C2Cc3c(n(C)c4ccccc34)C(C1)N2C (stereo not drawn)	74.5 µM	> 100 µM	58.7 µM	67.2 µM	41.7 µM
Cc1cc2c3ccccc3n(C)c2c2c1C(=O)c1ccccc1C2=O	31.8 µM	–	46 µM	98.5 µM	50.1 µM
CCSC1(SCC)CCN(C=NC(C)(C)C)C1	> 100 µM	> 100 µM	> 100 µM	> 100 µM	> 100 µM
O=C(CC(=O)N1N=C(n2ccc3ccccc32)CC1c1ccccc1)Nc1cccc(Cl)c1 (stereo not drawn)	> 100 µM	> 100 µM	–	> 100 µM	> 100 µM
O=C(CCc1nnc2s/c(=C\c3ccccc3)c(=O)n12)Nc1cc(Cl)ccc1Cl	> 100 µM	> 100 µM	> 100 µM	> 100 µM	> 100 µM
Cc1ccc(SSCCCS(=O)O)cc1	> 100 µM	> 100 µM	37.1 µM	> 100 µM	79 µM
CCc1cccc(C(C)CC)c1N=C(NC(=O)c1ccccc1C(=O)NC(=Nc1c(CC)cccc1C(C)CC)SC)SC (stereo not drawn)	> 100 µM	> 100 µM	–	> 100 µM	–
OC(c1ccccc1)(c1ccccc1)c1ccccn1	> 100 µM	> 100 µM	> 100 µM	> 100 µM	> 100 µM
N=C(N)n1ncc(Cl)c(Cl)c1=O	5.24 µM	2.86 µM	3.66 µM	3.36 µM	4.78 µM
O=C(c1cc(=O)c2ccc(O)cc2o1)c1ccc(Cl)cc1Cl	> 100 µM	> 100 µM	> 64 µM	> 100 µM	> 31.6 µM
O=C(NCCCN1CCN(CCCNC(=O)c2cnc3ccccc3n2)CC1)c1cnc2ccccc2n1	> 100 µM	> 100 µM	> 100 µM	> 100 µM	> 100 µM
CC(=O)CC(=O)CCCC(=O)Nc1ccc(Cl)cc1C	> 100 µM	> 100 µM	> 100 µM	> 100 µM	> 100 µM
CCOC(=O)C1=C(Nc2ccccc2)OC/C1=N\NC(=O)Cc1ccccc1	> 50 µM	> 50 µM	> 50 µM	> 50 µM	–
